≈ marks a conversion by molar mass, not a printed value. Like-named read-outs stand apart in the source and are kept apart here. Numbered stars: 1 amine (or outer) side, 2 acyl side, 3 side chain; on linkers, the order of the positions; unused ones are H or OH. Square brackets hold non-standard residues; d marks the D form. Ends that are not written are not given here. Peptide text beside a SMILES is read from it. Gly(N-CH2CH2-imidazol-4-yl) = O=C(O)CNCCc1c[nH]cn1; X1 = CC(C)[C@H](C)N(CC(=O)[*:2])[*:1]; Nspe = C[C@H](NCC(=O)O)c1ccccc1; Nphe = O=C(O)CNCc1ccccc1; Nlys = NCCCCNCC(=O)O
Experiments:
[1] = test system: Staphylococcus aureus ATCC 29213; type: cell-based; conditions: for Selectivity ratio (SR): Table 7B, 10% hemolytic dose divided by MIC
Description: (§1) Antibacterial assays. MICs were determined according to CLSI M7-A6 protocols in a 96-well microtiter plate. In test wells, 50 uL bacterial inoculum (5×10^5 CFU/ml) in Mueller-Hinton broth (MHB) was added to 50 μL peptoid solution in MHB (prepared by 1:2 serial dilutions). Positive controls contained 50 μL inoculum and 50 μL MHB without peptoid. […] MIC values reported were reproducible between three independent experimental replicates, each consisting of two parallel trials. Broad-spectrum antimicrobial susceptibility testing was performed against BSL2 pathogens by Nova Biologicals, Inc. (Conroe, Tex.).
(§2) Broad-spectrum antibacterial assays. MICs of compounds were determined by microdilution procedure in Mueller-Hinton broth (MHB) in accordance with CLSI M7-A6 protocols in a manner similar to that described for the screen antibacterial assays. Inoculated microtiter plates were incubated at 35° C. for 24 hours prior to the result being recorded. Four ATCC strains that were used as standards are recommended by CLSI: Pseudomonas aeruginosa ATCC 27853, Escherichia coli ATCC 25922, Staphylococcus aureus ATCC 29213 and Enterococcus faecalis ATCC 29212. Other strains from the ATCC collection include Proteus vulgaris ATCC 49132, Proteus mirabilis ATCC 35659, Klebsiella pneumoniae ATCC 33495, Enterobacter aerogenes ATCC 35029 and Serratia marcescens ATCC 13880. S. aureus NRS100 (COL) is a well characterized methicillian-resistant S. aureus (MRSA) strain. The strains S. aureus VAN1 and S. aureus VAN2, vancomycin-resistant MRSA strains that were isolated in Michigan and Pennsylvania, were the first vancomycin-resistant strains clinically isolated. S. aureus NRS 119 and S. aureus NRS 120 are linezolid-resistant isolates from the Network on Antimicrobial Resistance in S. aureus (NARSA) collection. E. faecalis 99 and E. faecium 106 are vancomycin-resistant enterococcal strains.

[2] = test system: Staphylococcus aureus NRS120; type: cell-based; conditions: for Selectivity ratio (SR): Table 7B, 10% hemolytic dose divided by MIC, S. aureus NRS120
Description: as §1, §2

[3] = test system: Enterococcus faecalis ATCC 29212; type: cell-based; conditions: for Selectivity ratio (SR): Table 7B, 10% hemolytic dose divided by MIC
Description: as §1, §2

[4] = test system: Staphylococcus aureus NRS119; type: cell-based; conditions: for Selectivity ratio (SR): Table 7B, 10% hemolytic dose divided by MIC, S. aureus NRS119
Description: as §1, §2

[5] = test system: Staphylococcus aureus VAN2; type: cell-based; conditions: for Selectivity ratio (SR): Table 7B, 10% hemolytic dose divided by MIC, S. aureus VAN2
Description: as §1, §2

[6] = test system: Staphylococcus aureus NRS100 (COL); type: cell-based; conditions: for Selectivity ratio (SR): Table 7B, 10% hemolytic dose divided by MIC, S. aureus NRS100 (COL)
Description: as §1, §2

[7] = test system: Staphylococcus aureus VAN1; type: cell-based; conditions: for Selectivity ratio (SR): Table 7B, 10% hemolytic dose divided by MIC, S. aureus VAN1
Description: as §1, §2

Enterococcus faecium 106 = type: cell-based; conditions: for Selectivity ratio (SR): Table 7B, 10% hemolytic dose divided by MIC
Description: as §1, §2

[8] = test system: Enterobacter aerogenes ATCC 35029; type: cell-based; conditions: for Selectivity ratio (SR): Table 7B, 10% hemolytic dose divided by MIC
Description: as §1, §2

[9] = test system: Proteus vulgaris ATCC 49132; type: cell-based; conditions: for Selectivity ratio (SR): Table 7B, 10% hemolytic dose divided by MIC
Description: as §1, §2

six strains of S. aureus = experiment: Broad-spectrum antibacterial MIC, summary over S. aureus strains; type: cell-based; conditions: text summary of Table 7B; 10% hemolytic dose / MIC
Description: The activities of ampetoids tested against BSL2 Gram-positive strains, however, compared very favorably to those of pexiganan.
as §2, with “E. faecalis 99 and E. faecium 106 are vancomycin-resistant enterococcal strains.” left out

[10] = test system: A549 lung epithelial cells; experiment: MTS assay, A549 cells
Description: The biocompatibility of selected oligomers with A549 lung epithelial cells was evaluated using the MTS [3-(4,5-dimethylthiazol-2-yl)-5-(3-carboxymethoxyphenyl)-2-(4-sulfophenyl)-2H-tetrazolium] assay.
MTS Assays. A549 carcinoma-derived lung epithelial cells (ATTC CCL-185) were cultured in Ham's F12K media (ATTC, Manassas, Va.). A peptoid solution plate (100 μL/well) was prepared by serial dilution of aqueous peptoid stocks in media. Peptoid solutions were transferred onto a 96-well plate of day-old cell monolayers containing 100 μL/well media with 5000 cells/well. MTS reagent (Promega Corporation, Madison, Wis.) (40 μL/well) was added to each well and the plate was incubated at 37° C. for 3 h, after which absorbance at 490 nm was determined. Percent inhibition was determined as [1−(A−Atest blank)/(Acontrol−Ablank)]×100, where A is the absorbance of the test well and Acontrol the average absorbance of wells with cells exposed to media and MTS (no peptoid). Atest blank (media, MTS, and peptoid) and Ablank (media and MTS) were background absorbances measured in the absence of cells. The average of six replicates are reported, and error bars show one standard deviation.

E. coli JM109 = type: cell-based; conditions: Table 1; SR = (HD10)/(E. coli MIC); listed as 1-/Vhis6,12
Source text: An initial set of 15 ampetoid analogs was synthesized to determine whether peptoids are affected by structural and sequence modifications in a manner consistent with AMP activities. The designs for ampetoids in this library were derived from two antibacterial and selective amphipathic dodecamers, 1 and 2. Peptoid 1 [H-(Nlys-Nspe-Nspe)4-NH2] is composed of 2/3 Nspe, the peptoid analog of phenylalanine, and 1/3 Mys, the peptoid analog of lysine (see FIG. 1 for the structures of representative peptoid monomers and corresponding N-substituents). Peptoid 2 [H-(Mys-Nssb-Nspe)4-NH2] contains 1/3 isoleucine-like Nssb monomers in place of Nspe. The variant sequences were designed to effect changes in chirality, length, hydrophobicity, charge, and amphipathicity. All of these compounds were tested for antibacterial activity against representative BSL1 Gram-negative (E. coli JM109) and Gram-positive (B. subtilis BR151) bacterial strains. As an initial measure of selectivity, the lytic activity of the peptoids was determined against human erythrocytes. Table 1 summarizes the sequences synthesized, the solvent composition at RP-HPLC elution as a relative measure of molecular hydrophobicity, and antibacterial and hemolytic activities.
Antibacterial assays. MICs were determined according to CLSI M7-A6 protocols in a 96-well microtiter plate. […]

“GIGKFLKKAKKFGKAFVKILKK-NH2 [pexiganan, reference compound]” was tested, and the MIC ([1]; Table 7A, S. aureus ATCC 29213) was 32 µg/mL, the “Selectivity ratio (SR)” value ([1]; S. aureus ATCC 29213) was 5.7 and the MIC ([2]; Table 7A, S. aureus NRS120 (linezolid-resistant)) was 64 µg/mL. For the same molecule, the “Selectivity ratio (SR)” value [2] was 2.8, the MIC ([3]; Table 7A, E. faecalis ATCC 29212) was 32 µg/mL and the “Selectivity ratio (SR)” value ([3]; E. faecalis ATCC 29212) was 5.7. For the same molecule, the MIC ([4]; Table 7A, S. aureus NRS119 (linezolid-resistant)) was 64 µg/mL, the “Selectivity ratio (SR)” value [4] was 2.8 and the MIC ([5]; Table 7A, S. aureus VAN2 (MRSA, vancomycin-resistant)) was 8 µg/mL. The “Selectivity ratio (SR)” value [5] was 23, the MIC ([6]; Table 7A, S. aureus NRS100 (COL) (MRSA)) was 16 µg/mL and the “Selectivity ratio (SR)” value [6] was 11. The MIC ([7]; Table 7A, S. aureus VAN1 (MRSA, vancomycin-resistant)) was 16 µg/mL, the “Selectivity ratio (SR)” value [7] was 11 and the MIC (Enterococcus faecium 106; Table 7A, E. faecium 106) was 4 µg/mL. For the same molecule, the “Selectivity ratio (SR)” value (Enterococcus faecium 106; E. faecium 106) was 46, the MIC ([8]; Table 7A, E. aerogenes ATCC 35029) was 32 µg/mL and the “Selectivity ratio (SR)” value ([8]; E. aerogenes ATCC 35029) was 5.7. The MIC ([9]; Table 7A, P. vulgaris ATCC 49132) was 32 µg/mL, the “Selectivity ratio (SR)” value ([9]; P. vulgaris ATCC 49132) was 5.7 and the “selectivity ratios, range over S. aureus strains” value (six strains of S. aureus) was 2.8-23.
With `C[C@@H](c1ccccc1)N(CC(=O)N(CCc1cnc[nH]1)CC(=O)N(CCCCN)CC(=O)N(CC(=O)N(CC(=O)N(CCCCN)CC(=O)N(CC(=O)N(CCc1cnc[nH]1)CC(N)=O)[C@@H](C)c1ccccc1)[C@@H](C)c1ccccc1)[C@@H](C)c1ccccc1)C(=O)CN(CCCCN)C(=O)CN(C(=O)CN(C(=O)CNCCCCN)[C@@H](C)c1ccccc1)[C@@H](C)c1ccccc1` [1-Nhis6,12, H-(Nlys-Nspe-Nspe-Nlys-Nspe-Nhis)2-NH2] (H-[Nlys][Nspe][Nspe][Nlys][Nspe][Gly(N-CH2CH2-imidazol-4-yl)][Nlys][Nspe][Nspe][Nlys][Nspe][Gly(N-CH2CH2-imidazol-4-yl)]-NH2) the “ID10 relative to that of pexiganan” value [10] was 20 times and the “Selectivity ratio (SR)” value (E. coli JM109) was > 31.
With `NCCCCNCC(=O)N(CC(=O)N(CC(=O)N(CCCCN)CC(=O)N(CC(=O)N(CC(=O)N(CCCCN)CC(=O)N(CC(=O)N(CC(=O)N(CCCCN)CC(=O)N(CC(=O)N(CC(N)=O)Cc1ccccc1)Cc1ccccc1)Cc1ccccc1)Cc1ccccc1)Cc1ccccc1)Cc1ccccc1)Cc1ccccc1)Cc1ccccc1` [1achiral, H-(Nlys-Npm-Npm)4-NH2] (H-[Nlys][Nphe][Nphe][Nlys][Nphe][Nphe][Nlys][Nphe][Nphe][Nlys][Nphe][Nphe]-NH2) the “Selectivity ratio (SR)” value ([1]; S. aureus ATCC 29213) was 39, the “Selectivity ratio (SR)” value [2] was 19 and the “Selectivity ratio (SR)” value ([3]; E. faecalis ATCC 29212) was 19. The “Selectivity ratio (SR)” value [4] was 19, the “Selectivity ratio (SR)” value [5] was 39 and the “Selectivity ratio (SR)” value [6] was 39. The “Selectivity ratio (SR)” value [7] was 39, the “Selectivity ratio (SR)” value (Enterococcus faecium 106; E. faecium 106) was 79 and the “Selectivity ratio (SR)” value ([8]; E. aerogenes ATCC 35029) was 2.4. For the same molecule, the “Selectivity ratio (SR)” value ([9]; P. vulgaris ATCC 49132) was 9.8 and the “selectivity ratios, range over S. aureus strains” value (six strains of S. aureus) was 19-39.
In the case of `CC(C)[C@H](C)N(CC(=O)N(CC(=O)N(CCCCN)CC(=O)N(CC(=O)N(CC(=O)N(CCCCN)CC(=O)N(CC(=O)N(CC(=O)N(CCCCN)CC(=O)N(CC(=O)N(CC(N)=O)[C@@H](C)c1ccccc1)[C@@H](C)C(C)C)[C@@H](C)c1ccccc1)[C@@H](C)C(C)C)[C@@H](C)c1ccccc1)[C@@H](C)C(C)C)[C@@H](C)c1ccccc1)C(=O)CNCCCCN` [1-Nsdp2,5,8,11, H-(Nlys-Nsdp-Nspe)4-NH2] (H-[Nlys][X1][Nspe][Nlys][X1][Nspe][Nlys][X1][Nspe][Nlys][X1][Nspe]-NH2), the MIC ([1]; ATCC 29213) was 8 µg/mL (≈ 4.75 µM), the “Selectivity ratio (SR)” value ([1]; S. aureus ATCC 29213) was 23 and the MIC ([2]; NRS120) was 16 µg/mL (≈ 9.51 µM). For the same molecule, the “Selectivity ratio (SR)” value [2] was 23, the MIC ([3]; ATCC 29212) was 8 µg/mL (≈ 4.75 µM) and the “Selectivity ratio (SR)” value ([3]; E. faecalis ATCC 29212) was 23. The MIC ([4]; NRS119) was 16 µg/mL (≈ 9.51 µM), the “Selectivity ratio (SR)” value [4] was 12 and the “Selectivity ratio (SR)” value [5] was 23. For the same molecule, the MIC ([5]; VAN2) was 8 µg/mL (≈ 4.75 µM), the MIC ([6]; NRS100 (COL)) was 8 µg/mL (≈ 4.75 µM) and the “Selectivity ratio (SR)” value [6] was 23. For the same molecule, the “Selectivity ratio (SR)” value [7] was 23, the MIC ([7]; VAN1) was 8 µg/mL (≈ 4.75 µM) and the MIC (Enterococcus faecium 106; 106) was 4 µg/mL (≈ 2.38 µM). The “Selectivity ratio (SR)” value (Enterococcus faecium 106; E. faecium 106) was 46, the MIC ([8]; ATCC 35029) was 32 µg/mL (≈ 19 µM) and the “Selectivity ratio (SR)” value ([8]; E. aerogenes ATCC 35029) was 5.8. For the same molecule, the MIC ([9]; ATCC 49132) was 32 µg/mL (≈ 19 µM) and the “Selectivity ratio (SR)” value ([9]; P. vulgaris ATCC 49132) was 5.8.

Reference: patent publication US20120295838A1, “Selective poly-substituted glycine antibiotics and related compositions” (priority 2008, published 2012)
